Data reported in patent US9586947B2, “Imidazoline derivatives, preparation methods thereof, and their applications in medicine” (priority 2012, dated 2017).

What was measured:
LNCaP cells = test: Proliferation inhibition of LNCaP cells (CCK-8); type: cell-based; settings: Homo sapiens, 144 h, cultured 3 + 3 days, CCK-8, OD at 450 nm
Protocol: The following in vitro assay was performed to determine the activity of the compounds of the present invention for inhibiting the proliferation of LNCaP cells.
(1). Cell counting reagent CCK-8 (DOJINDO, CK04)
See experimental procedure from Test Example 1.
After LNCaP cells were cultured for 3 days, the culture medium, test compounds, blank group, and control group were renewed with half of the liquid volume, and were cultured for another 3 days. Then, all 96-well plates were mixed gently with 10 μl of CCK-8 and cultured in an incubator for 2-3 hours under the conditions of 37° C. and 5% CO2. The OD value per well was measured at 450 nm on a Victor3 microplate reader.
(§1) IC50 values were calculated from the data of the inhibition rates of the test compounds at various concentrations.

[1] = tested on: PSA secretion of LNCaP cells; test: Inhibitory activity on PSA secretion of LNCaP cells; type: cell-based; settings: Homo sapiens, 96 h; LNCaP cells, 1 nM testosterone medium, 4 days of incubation, PSA kit OD450; read-out: IC50 (inhibition of PSA secretion of LNCaP cells)
Protocol: The following in vitro assay was performed to determine the activity of the compounds of the present invention for inhibiting prostate specific antigen (PSA) secretion of LNCaP cells.
(11). Testosterone culture medium: RIPM 1640 culture medium, 10% CS-FBS, 1% Pen Strep, 1 nM testosterone
LNCaP cells were subcultured in cell culture medium, resuspended in active carbon culture medium, and then inoculated into a 96-well plate (100 μl/well) with an inoculation density of 5×10^4 cells/well.
The test compounds were dissolved in DMSO (dimethyl sulfoxide) and prepared as a 10 mM stock solution. When used, the stock solution was diluted with 5×DMSO and then diluted with a threefold gradient to obtain 8 gradient concentrations. Then, the 8 gradient concentrations were each diluted with 20× testosterone culture medium, in order to ensure DMSO concentration in each culture system was 0.5%. Diluted test compounds remained to be tested.
10 μl of diluted test compounds were added to a 96-well plate and mixed gently. 10 μl of 0.5% DMSO diluted with active carbon culture medium was added to the blank group, and 10 μl of 0.5% DMSO diluted with testosterone culture medium was added to the control group. The 96-well plate was cultured in an incubator under the conditions of 37° C. and 5% CO2.
After 4 days of incubation, 60 μl of cell cultural supernatants were collected, and the OD450 value per well was measured on a NOVO Star microplate reader using PSA kit (Abnova, KA0208).
as §1

Structure (SMILES) | IC50 (LNCaP cells) | IC50 [1]
CC1(C)C(=O)N(c2ccc(C#N)c(C(F)(F)F)c2)C(=S)N1c1ccc(OCCCS(C)(=O)=O)c(F)c1 [Example 22, 4-(3-(3-Fluoro-4-(3-(methylsulfonyl)propoxy)phenyl)-4,4-dimethyl-5-oxo-2-thioxoimidazolidin-1-yl)-2-(trifluoromethyl)benzonitrile] | 0.134 µM | 0.021 µM
CC(=O)N1CCC(Oc2ccc(N3C(=S)N(c4ccc(C#N)c(C(F)(F)F)c4)C(=O)C3(C)C)cc2F)C1 (centres unmarked) [Example 36, 4-(3-(4-((1-Acetylpyrrolidin-3-yl)oxy)-3-fluorophenyl)-4,4-dimethyl-5-oxo-2-thioxoimidazolidin-1-yl)-2-(trifluoromethyl)benzonitrile] | 0.115 µM | 0.023 µM
CNC(=O)C1(COc2ccc(N3C(=S)N(c4ccc(C#N)c(C(F)(F)F)c4)C(=O)C3(C)C)cc2F)CC1 [Example 34, 1-((4-(3-(4-Cyano-3-(trifluoromethyl)phenyl)-5,5-dimethyl-4-oxo-2-thioxoimidazolidin-1-yl)-2-fluorophenoxy)methyl)-N-methylcyclopropanecarboxamide] | 0.159 µM | 0.051 µM
CN1CCC(Oc2ccc(N3C(=S)N(c4ccc(C#N)c(C(F)(F)F)c4)C(=O)C3(C)C)cc2F)CC1 [Example 20, 4-(3-(3-Fluoro-4-((1-methylpiperidin-4-yl)oxy)phenyl)-4,4-dimethyl-5-oxo-2-thioxoimidazolidin-1-yl)-2-(trifluoromethyl)benzonitrile] | 0.156 µM | 0.057 µM
CC1(C)C(=O)N(c2ccc(C#N)c(C(F)(F)F)c2)C(=S)N1c1ccc(OC2CCS(=O)(=O)CC2)c(F)c1 [Example 23, 4-(3-(4-((1,1-Dioxidotetrahydro-2H-thiopyran-4-yl)oxy)-3-fluorophenyl)-4,4-dimethyl-5-oxo-2-thioxoimidazolidin-1-yl)-2-(trifluoromethyl)benzonitrile] | 0.18 µM | 0.024 µM
CC1(C)C(=O)N(c2ccc(C#N)c(C(F)(F)F)c2)C(=S)N1c1ccc(OC(F)F)nc1 [Example 30, 4-(3-(6-(Difluoromethoxy)pyridin-3-yl)-4,4-dimethyl-5-oxo-2-thioxoimidazolidin-1-yl)-2-(trifluoromethyl)benzonitrile] | 0.058 µM | 0.017 µM
CNC(=O)c1ccccc1Oc1ccc(N2C(=S)N(c3ccc(C#N)c(C(F)(F)F)c3)C(=O)C2(C)C)cc1F [Example 26, 2-(4-(3-(4-Cyano-3-(trifluoromethyl)phenyl)-5,5-dimethyl-4-oxo-2-thioxoimidazolidin-1-yl)-2-fluorophenoxy)-N-methylbenzamide] | 0.201 µM | 0.044 µM
CNC(=O)COc1ccc(N2C(=S)N(c3ccc(C#N)c(C(F)(F)F)c3)C(=O)C2(C)C)cc1F [Example 32, 2-(4-(3-(4-Cyano-3-(trifluoromethyl)phenyl)-5,5-dimethyl-4-oxo-2-thioxoimidazolidin-1-yl)-2-fluorophenoxy)-N-methylacetamide] | 0.134 µM | 0.11 µM
CC1(C)C(=O)N(c2ccc(C#N)c(C(F)(F)F)c2)C(=S)N1c1ccc(OCC2CCOC2)nc1 (centres unmarked) [Example 25, 4-(4,4-Dimethyl-5-oxo-3-(6-((tetrahydrofuran-3-yl)methoxy)pyridin-3-yl)-2-thioxoimidazolidin-1-yl)-2-(trifluoromethyl)benzonitrile] | 0.111 µM | 0.031 µM
CC1(C)C(=O)N(c2ccc(C#N)c(C(F)(F)F)c2)C(=S)N1c1ccc(O[C@@H]2CCOC2)nc1 [Example 21, (R)-4-(4,4-Dimethyl-5-oxo-3-(6-((tetrahydrofuran-3-yl)oxy)pyridin-3-yl)-2-thioxoimidazolidin-1-yl)-2-(trifluoromethyl)benzonitrile] | 0.092 µM | 0.076 µM
CC1(C)C(=O)N(c2ccc(C#N)c(C(F)(F)F)c2)C(=S)N1c1ccc(O[C@H]2CCOC2)nc1 [Example 24, (S)-4-(4,4-Dimethyl-5-oxo-3-(6-((tetrahydrofuran-3-yl)oxy)pyridin-3-yl)-2-thioxoimidazolidin-1-yl)-2-(trifluoromethyl)benzonitrile] | 0.092 µM | 0.032 µM
CC1(C)C(=O)N(c2ccc(C#N)c(C(F)(F)F)c2)C(=S)N1c1ccc(OC2COC2)cc1 [Example 40, 4-(4,4-Dimethyl-3-(4-((oxetan-3-yl)oxy)phenyl)-5-oxo-2-thioxoimidazolidin-1-yl)-2-(trifluoromethyl)benzonitrile] | 0.196 µM | 0.029 µM
CC1(C)C(=O)N(c2ccc(C#N)c(C(F)(F)F)c2)C(=S)N1c1ccc(OC(F)F)c(F)c1 [Example 3, 4-(3-(4-(Difluoromethoxy)-3-fluorophenyl)-4,4-dimethyl-5-oxo-2-thioxoimidazolidin-1-yl)-2-(trifluoromethyl)benzonitrile] | 0.046 µM | 0.035 µM
CC1(C)C(=O)N(c2ccc(C#N)c(C(F)(F)F)c2)C(=S)N1c1ccc(O[C@@H]2CCOC2)c(F)c1 [Example 1, (R)-4-(3-(3-Fluoro-4-((tetrahydrofuran-3-yl)oxy)phenyl)-4,4-dimethyl-5-oxo-2-thioxoimidazolidin-1-yl)-2-(trifluoromethyl)benzonitrile] | 0.195 µM | 0.034 µM
CC1(C)C(=O)N(c2ccc(C#N)c(Cl)c2)C(=S)N1c1ccc(OCC2(N)CC2)c(F)c1 [Example 35, 4-(3-(4-((1-Aminocyclopropyl)methoxy)-3-fluorophenyl)-4,4-dimethyl-5-oxo-2-thioxoimidazolidin-1-yl)-2-chlorobenzonitrile] | 0.277 µM | 0.057 µM
CC1(C)C(=O)N(c2ccc(C#N)c(C(F)(F)F)c2)C(=S)N1c1ccc(OCC2(O)CC2)c(F)c1 [Example 5, 4-(3-(3-Fluoro-4-((1-hydroxycyclopropyl)methoxy)phenyl)-4,4-dimethyl-5-oxo-2-thioxoimidazolidin-1-yl)-2-(trifluoromethyl)benzonitrile] | 0.087 µM | 0.124 µM
CC1(C)C(=O)N(c2ccc(C#N)c(C(F)(F)F)c2)C(=S)N1c1ccc(OC2CCNCC2)c(F)c1 [Example 19, 4-(3-(3-Fluoro-4-((piperidin-4-yl)oxy)phenyl)-4,4-dimethyl-5-oxo-2-thioxoimidazolidin-1-yl)-2-(trifluoromethyl)benzonitrile] | 0.194 µM | 0.094 µM
CN1CCC(Oc2ccc(N3C(=S)N(c4ccc(C#N)c(C(F)(F)F)c4)C(=O)C3(C)C)cc2F)C1 (centres unmarked) [Example 29, 4-(3-(3-Fluoro-4-((1-methylpyrrolidin-3-yl)oxy)phenyl)-4,4-dimethyl-5-oxo-2-thioxoimidazolidin-1-yl)-2-(trifluoromethyl)benzonitrile] | 0.08 µM | 0.085 µM
CC1(C)C(=O)N(c2ccc(C#N)c(C(F)(F)F)c2)C(=S)N1c1ccc(OCC(O)CO)cc1 (centres unmarked) [Example 48, 4-(3-(4-(2,3-Dihydroxypropoxy)phenyl)-4,4-dimethyl-5-oxo-2-thioxoimidazolidin-1-yl)-2-(trifluoromethyl)benzonitrile] | 0.281 µM | 0.037 µM
